The values below come from patent publication US10196391B2 (Hoffmann-La Roche Inc., priority 2014, dated 2019).

The test system of this experiment is HBsAg. The experiment in a line: HBsAg assay (CLIA) in HepG2.2.15 cells. The class given is cell-based, HBV. The settings on record: Hepatitis B virus, HepG2.2.15, read-out: IC50 (HBsAg assay). The method, then:
HepG2.2.15 cells (Acs et al. Proc Natl Acad Sci USA, 84, (1987), 4641-4), a constitutively HBV-expressing cell line were cultured in DMEM+Glutamax-I medium (Invitrogen, Carlsbad, Calif., USA), supplemented with 10% fetal bovine serum (Invitrogen) and G418 (Invitrogen) at a final concentration of 200 mg/L and maintained in 5% CO2 at 37° C.
HepG2.2.15 cells were seeded in duplicate into white, 96-well plates at 1.5×10^4 cells/well. The cells were treated with a three-fold serial dilution series of the compounds in DMSO. The final DMSO concentration in all wells was 1% and DMSO was used as no drug control.
The HBsAg chemiluminescence immunoassay (CLIA) kit (Autobio Diagnostics Co., Zhengzhou, China, Catalog number: CL0310-2) was used to measure the levels of secreted HBV antigens semi-quantitatively. For the detection 50 μL/well culture supernatant was used and HBsAg was quantified using HBsAg chemiluminescence immunoassay (CLIA) kit (Autobio Diagnostics Co., Zhengzhou, China, Catalog number: CL0310-2), 50 μL of the supernatant was transferred to the CLIA assay plate and 50 μL of enzyme conjugate reagent was added into each well. The plates were sealed and gently agitated for 1 hour at room temperature. The supernatant-enzyme-mixture was discarded and wells were washed 6 times with 300 μL of PBS. The residual liquid was removed by plating the CLIA plate […] on absorbent tissue paper. 25 μL of substrates A and B were added to each well. Luminance was measured using a luminometer (Mithras LB 940 Multimode Microplate Reader) after 10 minutes incubation. Dose-response curves were generated and the IC50 value was extrapolated by using the E-WorkBook Suite (ID Business Solutions Ltd., Guildford, UK). The IC50 was defined as the compound concentration (or conditioned media log dilution) at which HBsAg secretion was reduced by 50% compared to the no drug control.
The compounds according to formula I were tested for their capacity to inhibit HBsAg as described herein.

In the case of `Fc1ccc(N2CCc3nc(-c4ccccn4)ncc3C2)cc1Br` [Example 51, 6-(3-bromo-4-fluoro-phenyl)-2-(2-pyridyl)-7,8-dihydro-5H-pyrido[4,3-d]pyrimidine], the IC50 – broadly, the concentration that inhibits the measured activity by half – was found to be 5.36 µM.

For the molecule `c1cnc(-c2ncc3c(n2)CCN(c2nccs2)C3)nc1` [Example 119, 2-(2-pyrimidin-2-yl-7,8-dihydro-5H-pyrido[4,3-d]pyrimidin-6-yl)thiazole], the IC50 is 6.08 µM.

Consider `COc1cc(N2CCc3nc(-c4ccccn4)ncc3C2)ccc1Cl` [Example 62, 6-(4-chloro-3-methoxy-phenyl)-2-(2-pyridyl)-7,8-dihydro-5H-pyrido[4,3-d]pyrimidine], for which the IC50 was 1.34 µM.

Turning to `Fc1cc(N2CCc3nc(-c4ccccn4)ncc3C2)cc(F)c1OCc1ccccc1` [Example 64, 6-(4-benzyloxy-3,5-difluoro-phenyl)-2-(2-pyridyl)-7,8-dihydro-5H-pyrido[4,3-d]pyrimidine], the IC50 was found to be 1.82 µM.

As for `Fc1cc(N2CCc3nc(-c4ncccn4)ncc3C2)cc(F)n1` [Example 109, 6-(2,6-difluoro-4-pyridyl)-2-pyrimidin-2-yl-7,8-dihydro-5H-pyrido[4,3-d]pyrimidine], the IC50 worked out at 4.09 µM.

`Fc1ccc(N2CCc3nc(-c4ccccn4)ncc3C2)c(OCc2ccccc2)c1` [Example 38, 6-(2-benzyloxy-4-fluoro-phenyl)-2-(2-pyridyl)-7,8-dihydro-5H-pyrido[4,3-d]pyrimidine]: the concentration for half-maximal inhibition (IC50) stood at 17.7 µM.

Turning to `CCOc1nc(-c2ccccn2)nc2c1CN(c1ccc(S(C)(=O)=O)cc1)CC2` [Example 82], the IC50 was 3.35 µM.

On to `Fc1cc(F)cc(N2CCc3nc(-c4ccccn4)ncc3C2)c1` [Example 13, 6-(3,5-difluorophenyl)-2-(2-pyridyl)-7,8-dihydro-5H-pyrido[4,3-d]pyrimidine], for which the IC50 stood at 1.04 µM.

For `FC(F)Oc1cccc(N2CCc3nc(-c4ncccn4)ncc3C2)c1` [Example 63, 6-[3-(difluoromethoxy)phenyl]-2-pyrimidin-2-yl-7,8-dihydro-5H-pyrido[4,3-d]pyrimidine], the IC50 amounted to 1.94 µM.

Take `COc1cc(N2CCc3nc(-c4ncccn4)ccc3C2)cc(F)c1F` [Example 97, 6-(3,4-difluoro-5-methoxy-phenyl)-2-pyrimidin-2-yl-7,8-dihydro-5H-1,6-naphthyridine]: the IC50 stood at 16.4 µM.

Take `c1ccc(COc2ccc(N3CCc4nc(-c5ccccn5)ncc4C3)cc2)cc1` [Example 46, 6-(4-benzyloxyphenyl)-2-(2-pyridyl)-7,8-dihydro-5H-pyrido[4,3-d]pyrimidine]: the half-maximal inhibitory concentration (IC50) turned out to be 8.79 µM.

As to `Cc1nc(-c2ccccn2)nc2c1CN(c1ccc(S(C)(=O)=O)cc1)CC2` [Example 87], the half-inhibitory concentration (IC50) was determined as 10.3 µM.

Regarding `Cc1cccnc1-c1ncc2c(n1)CCN(c1ccc(S(C)(=O)=O)cc1)C2` [Example 4, 2-(3-methyl-2-pyridyl)-6-(4-methylsulfonylphenyl)-7,8-dihydro-5H-pyrido[4,3-d]pyrimidine], the IC50 was determined as 17.8 µM.

On to `Cc1cc(F)cc(N2CCc3nc(-c4ccccn4)ncc3C2)c1` [Example 40, 6-(3-fluoro-5-methyl-phenyl)-2-(2-pyridyl)-7,8-dihydro-5H-pyrido[4,3-d]pyrimidine], for which the IC50 is 0.669 µM.

Take `COC(=O)c1cc(Br)ccc1N1CCc2nc(-c3ccccn3)ncc2C1` [Example 16, methyl 5-bromo-2-[2-(2-pyridyl)-7,8-dihydro-5H-pyrido[4,3-d]pyrimidin-6-yl]benzoate]: the IC50 was 13.7 µM.

On to `Clc1ccc(N2CCc3nc(-c4ccccn4)ncc3C2)nc1` [Example 36, 6-(5-chloro-2-pyridyl)-2-(2-pyridyl)-7,8-dihydro-5H-pyrido[4,3-d]pyrimidine], for which the IC50 is 1.54 µM.

For `c1ccc(-c2ncc3c(n2)CCN(c2ccccn2)C3)nc1` [Example 35, 2,6-bis(2-pyridyl)-7,8-dihydro-5H-pyrido[4,3-d]pyrimidine], the IC50 was found to be 8.21 µM.
